Laboratory results as given in PubChem BioAssay AID1033 (Sanford-Burnham Center for Chemical Genomics, 2008).
Calls of active or inactive are those of the source. The rule behind the calls is not given here.

Biological target: Chaperone protein DnaK (Escherichia coli (strain K12)) (UniProt P0A6Y8)
Test: binders of DnaK substrate-binding domain, biophysical, NMR, chaperone (AID 1033)
Conditions: Purified DnaK SBD, NMR ligand binding

Chaperone protein DnaK (Escherichia coli (strain K12)), sequence (P0A6Y8 whole entry, looked up, the tested form may be a part): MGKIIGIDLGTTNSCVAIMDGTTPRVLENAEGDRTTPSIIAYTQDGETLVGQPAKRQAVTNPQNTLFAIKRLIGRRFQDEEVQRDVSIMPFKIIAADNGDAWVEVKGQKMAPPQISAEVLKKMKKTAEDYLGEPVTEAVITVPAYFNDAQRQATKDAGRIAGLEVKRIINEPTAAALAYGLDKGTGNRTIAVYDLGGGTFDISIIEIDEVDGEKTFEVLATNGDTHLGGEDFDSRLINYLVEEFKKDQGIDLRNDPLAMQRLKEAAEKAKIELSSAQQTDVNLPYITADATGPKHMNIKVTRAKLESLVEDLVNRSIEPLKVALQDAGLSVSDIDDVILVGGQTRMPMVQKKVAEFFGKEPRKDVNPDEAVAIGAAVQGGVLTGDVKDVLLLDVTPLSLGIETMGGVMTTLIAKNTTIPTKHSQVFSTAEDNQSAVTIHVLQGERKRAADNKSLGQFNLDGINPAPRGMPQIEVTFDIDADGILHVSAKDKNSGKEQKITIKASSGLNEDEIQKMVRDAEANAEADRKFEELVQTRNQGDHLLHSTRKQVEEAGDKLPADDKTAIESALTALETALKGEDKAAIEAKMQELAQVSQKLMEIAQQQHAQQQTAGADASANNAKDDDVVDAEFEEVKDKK

SMILES | Kd
O=c1[nH]c(=O)n(-c2ccc(F)cc2)c(O)c1/C=C1/C=CC=N1 | > 4 mM (inactive)
Cn1ccc(NC(=S)Nc2cccc([N+](=O)[O-])c2)n1 | > 4 mM (inactive)
Cc1cc(N2C(=O)CCC2=O)n(-c2ccccc2)n1 | > 4 mM (inactive)
Nc1nc(=S)n2c(n1)oc1ccccc12 | > 4 mM (inactive)
Cc1csc2nc(=O)c3ccccc3n12 | > 4 mM (inactive)
CNC(=O)C1CC(=O)N(c2ccc(O)cc2)C1 (centres undefined) | > 4 mM (inactive)
NC(=O)Cn1cnc2ccccc21 | > 4 mM (inactive)
O=c1[nH]cc(Nc2ccccc2)c(=O)[nH]1 | > 4 mM (inactive)
Nc1nnc(SCc2ccccc2Cl)s1 | > 4 mM (inactive)
Cc1nccn1CCC(=O)O | > 4 mM (inactive)
OCc1nc2ccccc2s1 | > 4 mM (inactive)
NC(=O)c1ccc(-c2ccccn2)s1 | > 4 mM (inactive)
O=C(O)c1onc2ccccc12 | > 4 mM (inactive)
CCOc1ccc(C(=O)c2ccncc2)cc1 | > 4 mM (inactive)
NC(c1ccccc1)c1ccccn1 (centres undefined) | > 4 mM (inactive)
Cc1ccc(C(=O)NC2=NCCS2)o1 | > 4 mM (inactive)
COC(=O)c1cccc(C(F)(F)F)c1 | > 4 mM (inactive)
CCn1cnc2cc([N+](=O)[O-])ccc2c1=O | > 4 mM (inactive)
O=C(c1ccccc1)c1ccccc1C(=O)N1CCCC1 | > 4 mM (inactive)
Clc1ncnc2[nH]ncc12 | > 4 mM (inactive)
C[C@]12CCC(=O)C=C1CCC1C2C(=O)C[C@@]2(C)C1CC[C@]2(O)C(=O)CO (some centres undefined) | > 4 mM (inactive)
O=c1[nH]c2sc3c(c2c2nncn12)CCCC3 | > 4 mM (inactive)
COc1ccc(-c2coc3c(OC)c(OC)cc(O)c3c2=O)cc1 | > 4 mM (inactive)
Cc1c(C(=O)Nc2ccccn2)oc2ccccc12 | > 4 mM (inactive)
Nc1c(S(=O)(=O)c2ccccc2)csc1C(=O)O | > 4 mM (inactive)

SMILES | Kd
C[C@H]1[C@H]2CCC3C4CC=C5C[C@@H](N(C)C)CC[C@]5(C)C4CC[C@@]32CN1C (some centres undefined) | > 4 mM (inactive)
CSc1ccccc1NC(=O)c1ccc(C)o1 | > 4 mM (inactive)
COC(=O)N(c1ccccc1)P1(=S)OCCO1 | > 4 mM (inactive)
CC(=O)O[C@]1(C)CC[C@@]23CC1C(C)(C)[C@@H]2CC[C@H]3C | > 4 mM (inactive)
O=C(CN1CCOCC1)Nc1nccs1 | > 4 mM (inactive)
Cn1cc(Cl)c(C(=O)Nc2ccncc2)n1 | > 4 mM (inactive)
CC(C)=CCC1=C(O)c2ccccc2C(=O)C1=O | > 4 mM (inactive)
O=c1[nH]c2ccc(S(=O)(=O)NC3CC3)cc2[nH]1 | > 4 mM (inactive)
C=C(C)CSc1nc2nc(C)cc(C)n2n1 | > 4 mM (inactive)
Cc1ccc(CNc2ccc(O)cc2)cc1 | > 4 mM (inactive)
Cc1ccc(-c2nn3c(C)nnc3s2)cc1N | > 4 mM (inactive)
Cc1nn(CC(=O)Nc2ccccc2)c(=O)c2ccccc12 | > 4 mM (inactive)
O=C1NC(=Nc2ccc(O)cc2)S/C1=C/c1ccco1 | > 4 mM (inactive)
Cn1ncc(CO)c1-c1ccccc1 | > 4 mM (inactive)
COC(=O)c1cc(-c2c(C)nn(-c3ccccc3)c2C)n[nH]1 | > 4 mM (inactive)
O=CN1CCN(C(=O)c2ccc(F)cc2)CC1 | > 4 mM (inactive)
Cc1nc2sccn2c1C(=O)O | > 4 mM (inactive)
NS(=O)(=O)c1ccc(NC(=O)C(F)(F)F)cc1 | > 4 mM (inactive)
COc1ccc(-c2cn[nH]c2N)c(OC)c1 | > 4 mM (inactive)
O=C(O)c1cc(=O)c2cccc(O)c2[nH]1 | > 4 mM (inactive)
CN=C(C)c1c(O)n(C)c(=O)n(C)c1=O | > 4 mM (inactive)
O=C(Nn1c(=S)[nH]c2ccccc2c1=O)c1ccncc1 | > 4 mM (inactive)
COCC(=O)Nc1cccc(Br)c1 | > 4 mM (inactive)
Cn1nc(C(=O)Nc2cccnc2)cc1Cl | > 4 mM (inactive)
